Reference: patent US7199156B2, “Composition and method to treat solid tumors” (priority 2003, dated 2007)
Entries after “also recorded” stand apart in the source; their conditions may differ. Marks after values point to notes of the source that are not given here.

How the values were obtained:
[1] = free BAPN; quickly excreted and metabolized; cited from earlier work
[2] = tested on: malignant mammary adenocarcinoma, code 13762 NM; experiment: Single injection of lipophilic lathyrogen/polymeric carrier into mammary carcinoma (Example V); type: in vivo, rats; settings: single intratumoral injection on day 10, in polymeric carrier with unmodified DPA or BAPN
Procedure: In this Example V, Applicant prepared a formulation comprising methylester-DPA.HCl, i.e. Compound II wherein R1 is methyl and wherein R2 is hydrogen, and wherein X is chloride, or Hexyl(amino)-propionitrile, i.e. Compound IV, wherein R4 is hexyl, dispersed in a liquid polymeric carrier.
Applicant dispersed 1 gram of either methylester-DPA.HCl, or hexyl(amino) propionitrile, in combination with about 100 mg of the unmodified DPA or BAPN, respectively, in about 1 ml of the liquid polymer. After thorough mixing, 1 ml volume syringes were filled with Applicant's formulation. All preparations were performed at about 4° C., over crushed ice, and the syringes and needles used were refrigerated prior to loading. The loaded syringes were kept in a refrigerated vessel until used.
The rat model of solid tumor was described by Miller et al. (Proc Nat'l Acad Sci 90,3304,1993). Fischer 344 (F344) inbred female rats were used. The initial body weight was 100 grams, plus or minus about 7 grams. The right flank area was clipped, and the rats were tattooed for identification in the ear. […]
There were 6 rats per group. […] Once the implanted tumor was detectable, the size of that tumor was measured by caliper in two perpendicular directions.
The growth of each tumor was determined every second day. […]

breast adenocarcinome = experiment: Single injection into mammary carcinoma, breast adenocarcinome model (Example VI); type: in vivo, rats; settings: single intratumoral injection; FIG. 3
Procedure: In this Example VI, Applicant studied the effect of various treatments on the tumor growth, survival rate, morphology, and metastases in Fisher rats of breast adenocarcinome model.
The method of Example V was used to prepare and inject tumor chunks into the test animals. In Example VI, Applicant used 5 groups of animals with 8 rats per group.
The preparation of the treatment modalities was as follows: • Group 1. Control • Group 2. Polymer Carrier only; used 1.5 ml polymer+1 ml water (polymer used: 38% PLGA-c-PEG in saline) • Group 3. 2 grams Polymeric Carrier+1.038 grams Hexyl ester DPA.HCl+200 mg DPA • Group 4. 800 mg Hexyl ester DPA.HCl+200 mg DPA+2 ml water • Group 5. 1.5 grams Polymeric Carrier+1.5 grams Hexyl (amino)propionitrile+200 mg BAPN Once mixed, all materials were kept on ice until injection time. The various formulations were injected into the tumor using a 23 gauge needle. The retains of Groups 2, 3, and 5, remained pourable after 2–3 hours at 82° F.

[3] = Rate of release of lathyrogen from polymeric carrier HYPA(N-30) into saline; type: physicochemical; settings: for Percent Released: from HYPA(N-30) carrier into saline, 37° C.
Procedure: Applicant compared the rate of release from a polymeric carrier of unmodified […] hydrophilic lathyrogen, and a lipophilic D-penicillamine adduct formed by reacting DPA with hexanaldehyde using a published synthetic procedure. Both lathyrogens were dispersed in a polyacrylonitrile (“PAN”) polymer sold in commerce by SKY Polymers, Princeton, N.J. under the tradename HYPA(N-30). The HYPA(N-30) was dissolved in 100% DMSO. Water drowning this DMSO/HYPA(N-30)/lipophilic DPA solution, using a syringe with a 16 gauge needle attached, into saline (0.9% NaCl in water W/v) forms a flexible, solid string. The […] was kept at 37° C., and the incubation jar was minimally shaken. At the times recited in Table 1, an aliquot of the incubation medium was collected and the amount of released D-penicillamine was determined using a reaction between ninhydrin and the free amino groups on the released DPA. […] The ninhydrin reaction requires heating the sample at 100° C., thus freeing the amino group. Table 1 recites the results.

[4] = known properties; cited from earlier work
B-16 melanoma cells = experiment: Repeated injections of DPA into melanoma tumor (Example IV); type: in vivo, mice; settings: for Volume of melanoma tumor: 5 mg DPA in 0.2 ml saline daily, intratumoral, average
Procedure: Female mice, standard inbred C 57/Black, having between about 20 to about 25 g body weight were injected s.c. in the right flank region with 0.1 ml of […] B-16 melanoma cells. These cells are harvested in their end of the log phase growth. These cells come from a tissue culture, using RPMI 1640 medium with 10% FBS enriched with 1-glutamine, penicillin and streptomycin. Cells are harvested by trypsinization, counted, suspended in sterile PBS, and injected in 0.1 ml s.c. in flank region. There were 4 mice per group.
Injection of these melanoma cells resulted within 10 days post injection to a tumor weight of about 1.5 g. Tumor volumes were monitored 3× per week by caliper (MITUYO digital, Smalls Parts Inc., Phoenix, Ariz.) in two perpendicular directions and once per week for body weight. Tumor volume in cubic millimeters is calculated by the formula: (length×(width^2))/2.
Monitoring was continued up to 4 weeks. When the control animals began to die from the tumor burden, the experiment was terminated. Individual animals were terminated once the tumor volume exceeded 20% of mice weight, or when the body weight loss exceeded 20% of the starting body weight.
Table 2 recites the volume, in cubic millimeters, of the melanoma tumor injected daily with 5 mg DPA in 0.2 ml of saline. The treatment was administered once the tumor reached a detectable and measurable size. Average volumes are recited in Table 2. […] There was no effect on body weight or animals behavior.

[5] = cited from earlier work

N#CCCN [BAPN, beta-aminopropionitrile]
duration of activity [1]: no more than 24 hours

CCCCCCNCCC#N [Hexylamino-propionitrile, Hexyl(amino)-propionitrile]
growth of the tumor [2]: markedly inhibited; also recorded: inhibitory effect

COC(=O)[C@H](N)C(C)(C)S.Cl [methylester-DPA.HCl, DPA-Methylester Hydrochloride]
tumor growth (breast adenocarcinome): effective | growth of the tumor ([2]; Hydrochloride): even more pronounced inhibition of tumor growth; also recorded: inhibitory effect

D-Pencillamine [DPA]
time over which released from the polymeric carrier ([3]; FIG. 1): a few hours | Percent Released ([3]; Time 0.1 hours): 29% | Percent Released ([3]; Time 2 hours): 89% | Percent Released ([3]; Time 20 hours): 100% | Toxicity In local administration [4]: none | Toxicity in systemic administration [4]: yes | effect on body weight or animals behavior (B-16 melanoma cells; daily intratumoral 5 mg DPA): no effect | Volume of melanoma tumor (B-16 melanoma cells; day 0 after detectable tumor was injected): 89 cubic millimeters | Volume of melanoma tumor (B-16 melanoma cells; day 2): 174* cubic millimeters | Volume of melanoma tumor (B-16 melanoma cells; day 5): 806* cubic millimeters | Volume of melanoma tumor (B-16 melanoma cells; day 7): 816* cubic millimeters | Volume of melanoma tumor (B-16 melanoma cells; day 9): 486* cubic millimeters | solubility in aqueous media, such as tissue fluid [5]: very soluble
